Experimental data taken from patent US9611278B2 (Merck Sharp & Dohme Corp., priority 2013, dated 2017).

Target: T1, sGC α1/β1 heterodimer stably expressed in CHO-K1 cells (CHO-K1/sGC) (Homo sapiens, UniProt Q02108+Q02153)
T1 construct: expressed in transfected cells
T1 sequence (Q02108 1-690): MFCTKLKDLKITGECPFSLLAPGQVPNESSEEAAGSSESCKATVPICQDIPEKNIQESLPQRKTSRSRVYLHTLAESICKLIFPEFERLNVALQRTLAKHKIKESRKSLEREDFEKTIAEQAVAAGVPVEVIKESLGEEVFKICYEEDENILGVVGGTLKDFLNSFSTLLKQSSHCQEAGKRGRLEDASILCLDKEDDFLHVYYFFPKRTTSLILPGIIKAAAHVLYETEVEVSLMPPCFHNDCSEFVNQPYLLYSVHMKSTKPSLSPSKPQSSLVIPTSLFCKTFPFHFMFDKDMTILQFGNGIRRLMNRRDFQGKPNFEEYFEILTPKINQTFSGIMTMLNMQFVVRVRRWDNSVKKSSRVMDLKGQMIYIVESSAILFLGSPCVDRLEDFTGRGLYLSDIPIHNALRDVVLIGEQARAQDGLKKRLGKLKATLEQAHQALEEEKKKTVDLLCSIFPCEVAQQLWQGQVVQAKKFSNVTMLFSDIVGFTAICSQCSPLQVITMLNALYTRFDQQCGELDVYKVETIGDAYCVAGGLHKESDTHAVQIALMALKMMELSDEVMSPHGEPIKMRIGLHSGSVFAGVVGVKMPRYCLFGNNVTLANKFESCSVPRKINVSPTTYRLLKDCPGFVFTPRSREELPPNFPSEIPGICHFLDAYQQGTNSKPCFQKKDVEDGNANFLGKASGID
T1 sequence (Q02153 1-619): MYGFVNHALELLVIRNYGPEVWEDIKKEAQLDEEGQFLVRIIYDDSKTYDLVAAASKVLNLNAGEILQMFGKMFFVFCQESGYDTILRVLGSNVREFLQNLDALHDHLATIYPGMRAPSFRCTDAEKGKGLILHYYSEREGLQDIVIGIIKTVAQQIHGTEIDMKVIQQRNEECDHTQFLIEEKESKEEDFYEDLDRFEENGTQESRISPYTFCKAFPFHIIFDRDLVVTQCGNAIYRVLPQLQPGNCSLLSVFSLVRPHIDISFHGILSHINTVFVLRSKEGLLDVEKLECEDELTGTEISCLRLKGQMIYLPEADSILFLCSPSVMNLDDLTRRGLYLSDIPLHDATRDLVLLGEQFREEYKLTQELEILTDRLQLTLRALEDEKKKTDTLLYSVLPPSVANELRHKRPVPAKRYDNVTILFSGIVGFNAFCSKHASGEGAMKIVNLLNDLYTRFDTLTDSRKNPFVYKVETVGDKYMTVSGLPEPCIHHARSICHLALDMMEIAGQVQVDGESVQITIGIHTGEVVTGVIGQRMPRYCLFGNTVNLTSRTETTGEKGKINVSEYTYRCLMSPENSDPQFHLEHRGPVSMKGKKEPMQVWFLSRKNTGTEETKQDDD
Assay: Cell-based sGC Functional Assay (CASA Assay)
Conditions: for Emax: CHO-K1, activation as percentage of maximum cGMP production of Compound A (set to 100%), read-out: % Act.; for EC50: inflection point of cGMP generation in CHO-K1/sGC cells, 4P fit, 1 hr at 37° C., read-out: IP
In short: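 CHO-K1 cells stably expressing human sGC α1/β1 were incubated with compound for 1 h at 37 °C in buffer with 0.5 mM IBMX and 2.5% DMSO, with or without 1 μM DETA-NO. Intracellular cGMP was read by HTRF and expressed as percentage of maximal activation by reference activator Compound A. Values came from a 4-parameter fit.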

| Emax [%] | EC50 [nM] | Structure (SMILES) |
| --- | --- | --- |
| 169 | 44 | Cn1ncc2c(-c3nc(N)c4c(n3)NC(=O)C4(c3ccc(Cl)cn3)C3CC3)nc(CC3CC(F)(F)C3)nc21 (stereo not shown) [Example 31, 4-Amino-5-(5-chloropyridin-2-yl)-5-cyclopropyl-2-(6-((3,3-difluorocyclobutyl)methyl)-1-methyl-1H-pyrazolo[3,4-d]pyrimidin-4-yl)-5,7-dihydro-6H-pyrrolo[2,3-d]pyrimidin-6-one] |
| 109 | 44 | CCCCc1nc(-c2nc(N)c3c(n2)NC(=O)C3(C)c2ccc(F)cn2)c2cnn(C)c2n1 (stereo not shown) [Example 34, 4-Amino-2-(6-butyl-1-methyl-1H-pyrazolo[3,4-d]pyrimidin-4-yl)-5-(5-fluoropyridin-2-yl)-5-methyl-5,7-dihydro-6H-pyrrolo[2,3-d]pyrimidin-6-one] |
| 88 | 96 | CCCCc1nc(-c2nc(N)c3c(n2)NC(=O)C3(C)c2ccc(C(C)C)cn2)c2cnn(C)c2n1 (stereo not shown) [Example 35, 4-Amino-2-(6-butyl-1-methyl-1H-pyrazolo[3,4-d]pyrimidin-4-yl)-5-(5-isopropylpyridin-2-yl)-5-methyl-5,7-dihydro-6H-pyrrolo[2,3-d]pyrimidin-6-one] |
| 192 | 41 | Cn1ncc2c(-c3nc(N)c4c(n3)NC(=O)C4(C)c3ccc(Cl)cn3)nc(CC3CC(F)(F)C3)nc21 (stereo not shown) [Example 37, 4-Amino-5-(5-chloropyridin-2-yl)-2-(6-((3,3-difluorocyclobutyl)methyl)-1-methyl-1H-pyrazolo[3,4-d]pyrimidin-4-yl)-5-methyl-5,7-dihydro-6H-pyrrolo[2,3-d]pyrimidin-6-one] |
| 115 | 150 | [2H]C([2H])([2H])n1ncc2c(-c3nc(N)c4c(n3)NC(=O)C4(C)c3nnc(C4CC4)o3)nc(CCC(F)(F)C(F)(F)F)nc21 (stereo not shown) [Example 39, 4-Amino-5-(5-cyclopropyl-1,3,4-oxadiazol-2-yl)-5-methyl-2-(1-(methyl-d3)-6-(3,3,4,4,4-pentafluorobutyl)-1H-pyrazolo[3,4-d]pyrimidin-4-yl)-5,7-dihydro-6H-pyrrolo[2,3-d]pyrimidin-6-one] |
| 120 | 887 | [2H]C([2H])([2H])n1ncc2c(-c3nc(N)c4c(n3)NC(=O)C4(CC)c3nnc(C4CC4)o3)nc(CCC(F)(F)C(F)(F)F)nc21 (stereo not shown) [Example 42, 4-Amino-5-(5-cyclopropyl-1,3,4-oxadiazol-2-yl)-5-ethyl-2-(1-(methyl-d3)-6-(3,3,4,4,4-pentafluorobutyl)-1H-pyrazolo[3,4-d]pyrimidin-4-yl)-5,7-dihydro-6H-pyrrolo[2,3-d]pyrimidin-6-one] |
| 101 | 738 | CCn1ncc2c(-c3nc(N)c4c(n3)NC(=O)C4(c3nnc(C4CC4)o3)C3CC3)nc(CCC(F)(F)C(F)(F)F)nc21 (stereo not shown) [Example 45, 4-Amino-5-cyclopropyl-5-(5-cyclopropyl-1,3,4-oxadiazol-2-yl)-2-(1-ethyl-6-(3,3,4,4,4-pentafluorobutyl)-1H-pyrazolo[3,4-d]pyrimidin-4-yl)-5,7-dihydro-6H-pyrrolo[2,3-d]pyrimidin-6-one] |
| 112 | 399 | Cn1ncc2c(-c3nc(N)c4c(n3)NC(=O)C4(c3nnc(C4(C)CC4)o3)C3CC3)nc(CCC(F)(F)C(F)(F)F)nc21 (stereo not shown) [Example 48, 4-Amino-5-cyclopropyl-2-(1-methyl-6-(3,3,4,4,4-pentafluorobutyl)-1H-pyrazolo[3,4-d]pyrimidin-4-yl)-5-(5-(1-methylcyclopropyl)-1,3,4-oxadiazol-2-yl)-5,7-dihydro-6H-pyrrolo[2,3-d]pyrimidin-6-one] |
| 154 | 119 | Cn1ncc2c(-c3nc(N)c4c(n3)NC(=O)C4(c3nnc(C4CC4)o3)C3CC3)nc(CC3CC(F)(F)C3)nc21 (stereo not shown) [Example 51, 4-Amino-5-cyclopropyl-5-(5-cyclopropyl-1,3,4-oxadiazol-2-yl)-2-(6-((3,3-difluorocyclobutyl)methyl)-1-methyl-1H-pyrazolo[3,4-d]pyrimidin-4-yl)-5,7-dihydro-6H-pyrrolo[2,3-d]pyrimidin-6-one] |

Continued, compound first:

| Structure (SMILES) | Emax [%] | EC50 [nM] |
| --- | --- | --- |
| Cn1ncc2c(-c3nc(N)c4c(n3)NC(=O)C4(C)c3ccc(F)cn3)nc(CCC3CCC3)nc21 (stereo not shown) [Example 30, 4-Amino-2-(6-(2-cyclobutylethyl)-1-methyl-1H-pyrazolo[3,4-d]pyrimidin-4-yl)-5-(5-fluoropyridin-2-yl)-5-methyl-5,7-dihydro-6H-pyrrolo[2,3-d]pyrimidin-6-one] | 98 | 35 |
| Cn1ncc2c(-c3nc(N)c4c(n3)NC(=O)C4(c3ccc(C(F)(F)F)cn3)C3CC3)nc(CC3CC(F)(F)C3)nc21 (stereo not shown) [Example 32, 4-Amino-5-cyclopropyl-2-(6-((3,3-difluorocyclobutyl)methyl)-1-methyl-1H-pyrazolo[3,4-d]pyrimidin-4-yl)-5-(5-(trifluoromethyl)pyridin-2-yl)-5,7-dihydro-6H-pyrrolo[2,3-d]pyrimidin-6-one] | 113 | 59 |
| COc1ccc(C2(C)C(=O)Nc3nc(-c4nc(CC5CC(F)(F)C5)nc5c4cnn5C)nc(N)c32)nc1 (stereo not shown) [Example 33, 4-Amino-2-(6-((3,3-difluorocyclobutyl)methyl)-1-methyl-1H-pyrazolo[3,4-d]pyrimidin-4-yl)-5-(5-methoxypyridin-2-yl)-5-methyl-5,7-dihydro-6H-pyrrolo[2,3-d]pyrimidin-6-one] | 104 | 32 |
| [2H]C([2H])([2H])n1ncc2c(-c3nc(N)c4c(n3)NC(=O)C4(c3nnc(C4CC4)o3)C3CC3)nc(CCCC(F)(F)F)nc21 (stereo not shown) [Example 43, 4-Amino-5-cyclopropyl-5-(5-cyclopropyl-1,3,4-oxadiazol-2-yl)-2-(1-(methyl-d3)-6-(4,4,4-trifluorobutyl)-1H-pyrazolo[3,4-d]pyrimidin-4-yl)-5,7-dihydro-6H-pyrrolo[2,3-d]pyrimidin-6-one] | 143 | 825 |
| [2H]C([2H])([2H])n1ncc2c(-c3nc(N)c4c(n3)NC(=O)C4(c3nnc(C4CCC4)o3)C3CC3)nc(CCC(F)(F)C(F)(F)F)nc21 (stereo not shown) [Example 46, 4-Amino-5-(5-cyclobutyl-1,3,4-oxadiazol-2-yl)-5-cyclopropyl-2-(1-(methyl-d3)-6-(3,3,4,4,4-pentafluorobutyl)-1H-pyrazolo[3,4-d]pyrimidin-4-yl)-5,7-dihydro-6H-pyrrolo[2,3-d]pyrimidin-6-one] | 97 | 258 |
| [2H]C([2H])([2H])n1ncc2c(-c3nc(N)c4c(n3)NC(=O)C4(c3nnc(C4CC4)o3)C3CC3)nc(CCC(F)(F)F)nc21 (stereo not shown) [Example 47, 4-Amino-5-cyclopropyl-5-(5-cyclopropyl-1,3,4-oxadiazol-2-yl)-2-(1-(methyl-d3)-6-(3,3,3-trifluoropropyl)-1H-pyrazolo[3,4-d]pyrimidin-4-yl)-5,7-dihydro-6H-pyrrolo[2,3-d]pyrimidin-6-one] | 108 | 2080 |
| CC(C)c1nnc(C2(C3CC3)C(=O)Nc3nc(-c4nc(CCC(F)(F)C(F)(F)F)nc5c4cnn5C)nc(N)c32)o1 (stereo not shown) [Example 49, 4-Amino-5-cyclopropyl-5-(5-isopropyl-1,3,4-oxadiazol-2-yl)-2-(1-methyl-6-(3,3,4,4,4-pentafluorobutyl)-1H-pyrazolo[3,4-d]pyrimidin-4-yl)-5,7-dihydro-6H-pyrrolo[2,3-d]pyrimidin-6-one] | 113 | 149 |
| CC(C)c1nnc(C2(C)C(=O)Nc3nc(-c4nc(CCC(F)(F)C(F)(F)F)nc5c4cnn5C)nc(N)c32)o1 (stereo not shown) [Example 50, 4-Amino-5-(5-isopropyl-1,3,4-oxadiazol-2-yl)-5-methyl-2-(1-methyl-6-(3,3,4,4,4-pentafluorobutyl)-1H-pyrazolo[3,4-d]pyrimidin-4-yl)-5,7-dihydro-6H-pyrrolo[2,3-d]pyrimidin-6-one] | 176 | 84 |
